Key:
Type in all cases: in vivo
Alopecurus myosuroides [1] = assay: Pre-emergence herbicidal effect; conditions: 80 g/ha, visual score after 3 weeks vs untreated controls
Source text: (§1) Seeds of monocotyledonous and dicotyledonous weed plants and crop plants are laid out in sandy loam soil in wood-fiber pots and covered with soil. The compounds of the invention, formulated in the form of wettable powders (WP) or as emulsion concentrates (EC), are then applied to the surface of the covering soil as aqueous suspension or emulsion at a water application rate equating to 600 to 800 L/ha with addition of 0.2% wetting agent. After the treatment, the pots are placed in a greenhouse and kept under good growth conditions for the trial plants. The damage to the test plants is scored visually after a test period of 3 weeks by comparison with untreated controls (herbicidal activity in percent (%): 100% activity=the plants have died, 0% activity=like control plants).

Setaria viridis [2] = assay: Pre-emergence herbicidal effect; conditions: 80 g/ha, visual score after 3 weeks vs untreated controls
Source text: as §1

Digitaria sanguinalis [3] = assay: Pre-emergence herbicidal effect; conditions: 80 g/ha, visual score after 3 weeks vs untreated controls
Source text: as §1

Echinochloa crus-galli [4] = assay: Pre-emergence herbicidal effect; conditions: 80 g/ha, visual score after 3 weeks vs untreated controls
Source text: as §1

Avena fatua = assay: Pre-emergence herbicidal effect; conditions: 80 g/ha, visual score after 3 weeks vs untreated controls
Source text: as §1

Lolium rigidum [5] = assay: Pre-emergence herbicidal effect; conditions: 80 g/ha, visual score after 3 weeks vs untreated controls
Source text: as §1

Alopecurus myosuroides [6] = assay: Post-emergence herbicidal effect; conditions: 80 g/ha, post-emergence at one-leaf stage, visual score after about 3 weeks
Protocol: (§2) Seeds of monocotyledonous and dicotyledonous weed and crop plants are laid out in sandyloam soil in wood-fiber pots, covered with soil and cultivated in a greenhouse under good growth conditions. 2 to 3 weeks after sowing, the test plants are treated at the one-leaf stage. The compounds of the invention, formulated in the form of wettable powders (WP) or as emulsion concentrates (EC), are then sprayed onto the green parts of the plants as aqueous suspension or emulsion at a water application rate equating to 600 to 800 l/ha with addition of 0.2% wetting agent. After the test plants have been left to stand in the greenhouse under optimal growth conditions for about 3 weeks, the action of the preparations is assessed visually in comparison to untreated controls (herbicidal action in percent (%): 100% activity=the plants have died, 0% activity=like control plants).

Setaria viridis [7] = assay: Post-emergence herbicidal effect; conditions: 80 g/ha, post-emergence at one-leaf stage, visual score after about 3 weeks
Protocol: as §2

Digitaria sanguinalis [8] = assay: Post-emergence herbicidal effect; conditions: 80 g/ha, post-emergence at one-leaf stage, visual score after about 3 weeks
Protocol: as §2

Echinochloa crus-galli [9] = assay: Post-emergence herbicidal effect; conditions: 80 g/ha, post-emergence at one-leaf stage, visual score after about 3 weeks
Protocol: as §2

Lolium rigidum [10] = assay: Post-emergence herbicidal effect; conditions: 80 g/ha, post-emergence at one-leaf stage, visual score after about 3 weeks
Protocol: as §2

Hordeum murinum = assay: Post-emergence herbicidal effect; conditions: 80 g/ha, post-emergence at one-leaf stage, visual score after about 3 weeks
Protocol: as §2

C=CCOC1CCC2(CC1)NC(=O)C(c1c(Br)cc(C#CC)cc1OC)=C2O (stereo not drawn) [Example 1.3.01]
Pre-emergence action ALOMY (herbicidal activity in percent) (Alopecurus myosuroides [1]): 100%
Pre-emergence action SETVI (herbicidal activity in percent) (Setaria viridis [2]): 100%
Pre-emergence action DIGSA (herbicidal activity in percent) (Digitaria sanguinalis [3]): 100%
Pre-emergence action ECHCG (herbicidal activity in percent) (Echinochloa crus-galli [4]): 90%
Pre-emergence action AVEFA (herbicidal activity in percent) (Avena fatua): 100%
Pre-emergence action LOLRI (herbicidal activity in percent) (Lolium rigidum [5]): 100%
Post-emergence action against ALOMY (herbicidal action in percent) (Alopecurus myosuroides [6]): 100%
Post-emergence action against SETVI (herbicidal action in percent) (Setaria viridis [7]): 100%
Post-emergence action against DIGSA (herbicidal action in percent) (Digitaria sanguinalis [8]): 100%
Post-emergence action against ECHCG (herbicidal action in percent) (Echinochloa crus-galli [9]): 100%
Post-emergence action against LOLRI (herbicidal action in percent) (Lolium rigidum [10]): 100%
Post-emergence action against HORMU (herbicidal action in percent) (Hordeum murinum): 100%

C=CCOC1CCC2(CC1)NC(=O)C(c1c(Br)cc(C#CC)cc1OC)=C2OC(=O)C(C)C (stereo not drawn) [Example 1.3.04]
Pre-emergence action ALOMY (herbicidal activity in percent) (Alopecurus myosuroides [1]): 90%
Pre-emergence action SETVI (herbicidal activity in percent) (Setaria viridis [2]): 100%
Pre-emergence action DIGSA (herbicidal activity in percent) (Digitaria sanguinalis [3]): 100%
Pre-emergence action ECHCG (herbicidal activity in percent) (Echinochloa crus-galli [4]): 100%
Pre-emergence action AVEFA (herbicidal activity in percent) (Avena fatua): 90%
Pre-emergence action LOLRI (herbicidal activity in percent) (Lolium rigidum [5]): 100%
Post-emergence action against ALOMY (herbicidal action in percent) (Alopecurus myosuroides [6]): 90%
Post-emergence action against SETVI (herbicidal action in percent) (Setaria viridis [7]): 100%
Post-emergence action against DIGSA (herbicidal action in percent) (Digitaria sanguinalis [8]): 100%
Post-emergence action against ECHCG (herbicidal action in percent) (Echinochloa crus-galli [9]): 100%
Post-emergence action against LOLRI (herbicidal action in percent) (Lolium rigidum [10]): 100%
Post-emergence action against HORMU (herbicidal action in percent) (Hordeum murinum): 100%

Reference: patent US20220056040A1, “NOVEL 3-(2-BROMO-4-ALKYNYL-6-ALKOXYPHENYL)-3-PYRROLIN-2-ONES AND THEIR USE AS HERBICIDES” (Bayer Aktiengesellschaft, priority 2019, published 2022)
